This assay has as its target GABA-A receptor; anion channel (Homo sapiens) (UniProt P14867+P47870+P18507+P28472+P48169+Q99928+Q9UN88+P34903+O00591+O14764+Q8N1C3+P18505+P78334+P47869+P31644+Q16445). In words: Gamma-aminobutyric acid A receptor modulating activity (expressed as biological activity). The assay is classed as protein-complex assay.
The compound `C=CC[C@@H]1C(=O)OC[C@H]1NCc1ccccc1` showed a BA of -1.
The value for `CCCC1(CCC)C(=O)OC[C@H]1NC(=O)c1ccccc1` was 420; that for `C=CCC1(CC=C)C(=O)OC[C@H]1NCc1ccccc1` was 115.
`O=C1C[C@H](NC(=O)OCc2ccccc2)CO1` returned a BA of 47.
On to `CCCC1(CCC)C(=O)OC[C@H]1NS(=O)(=O)c1ccc(OC)cc1`, for which the BA is -22.
Take `CCCC1(CCC)C(=O)OC[C@H]1NC(=O)OC(C)(C)C`: the BA came out at 46.
Then `CCCC1(CCC)C(=O)OC[C@H]1NS(=O)(=O)c1ccc2ccccc2c1`, with 4; and `C=CCOC(=O)N[C@@H]1COC(=O)C1(CCC)CCC`, with 765; and `CCCC1(CCC)C(=O)OC[C@H]1NC(=O)OCC`, with 426.
The value for `O=C1C[C@H](NCc2ccccc2)CO1` was 0.
Then `CCCC1(CCC)C(=O)OC[C@H]1NC(=O)OCc1ccccc1`, with 104.
`CCCC1(CCC)C(=O)OC[C@H]1NC(=O)Oc1ccccc1` came in with a BA of 330.
Take `CCCC1(CCC)C(=O)OC[C@H]1NS(=O)(=O)c1ccc(Cl)cc1`: the BA came out at 23.
The value for `CCCC1(CCC)C(=O)OC[C@H]1NS(=O)(=O)c1cccs1` was -16; that for `CCCC1(CCC)C(=O)OC[C@H]1NS(=O)(=O)c1ccc(C(F)(F)F)cc1` was -44.
As to `CCCC1(CCC)C(=O)OCC1NC(=O)OCc1ccccc1` (single isomer, unassigned), the BA amounted to 279.
As to `CCCC1(CCC)C(=O)OC[C@H]1NS(=O)(=O)N(C)C`, the BA is -1.
The value for `C=CC[C@H]1C(=O)OC[C@H]1NCc1ccccc1` was 73.
